Key:
[1] = tested on: moderate-to-severe chronic spontaneous urticaria (CSU); experiment: Phase 2 CSU study: Patient Global Impression of Change (PGIC); format: in vivo, human; settings: for PGIC category Moderately worse, patients / PGIC category No change, patients / PGIC category Very much better, patients / PGIC category Very much worse, patients / PGIC Mean (SD) / PGIC Median / PGIC category A little better, patients / PGIC category A little worse, patients / PGIC category Moderately better, patients: omalizumab-naïve population; for PGIC LS Mean (SE) / PGIC LS Mean Diff vs. placebo (95% CI): omalizumab-naïve, ANCOVA
From the text: The study comprises a 12 week, randomized, double-blind, placebo-controlled, multi-center, dose-ranging efficacy and safety phase, followed by a 40 week open label extension (OLE) phase (see FIG. 1).
The study consists of three phases and an optional OLE phase.
The PGIS is a 1-item measure that asks participants to provide a self-assessment of their overall CSU severity for the past week on a 4 point scale. Response choices are: “None”, “Mild”, “Moderate” and “Severe”. The PGIC is a 1-item measure that asks the participant to provide a self-assessment of overall change in their CSU since the participant started taking the study medication on a 7-point scale. The response options range from “Very Much Better” to “Very Much Worse.” Patients were to complete questionnaires for the 2 items during their site visit.

[2] = tested on: patients with moderate-to-severe CSU; experiment: Phase 2 CSU study: safety (TEAEs, SAEs, AESIs), double-blind period
[3] = 400 mg BID (N = 41), double-blind period, safety population

CC(C)(C=C(C#N)C(=O)N1CCC[C@@H](n2nc(-c3ccc(Oc4ccccc4)cc3F)c3c(N)ncnc32)C1)N1CCN(C2COC2)CC1 [rilzabrutinib, (R)-2-[3-[4-amino-3-(2-fluoro-4-phenoxy-phenyl)pyrazolo[3,4-d]pyrimidin-1-yl]piperidine-1-carbonyl]-4-methyl-4-[4-(oxetan-3-yl)piperazin-1-yl]pent-2-enenitrile]
PGIC category Moderately worse, patients ([1]; Week 8, 400 mg BID): 1 (3.0) | PGIC category No change, patients ([1]; Week 8, 400 mg BID): 6 (18.2) | PGIC category Very much better, patients ([1]; Week 8, 400 mg BID): 13 (39.4) | PGIC category Very much worse, patients ([1]; Week 8, 400 mg BID): 1 (3.0) | PGIC LS Mean (SE) ([1]; Week 8, 400 mg BID): 1.43 | PGIC LS Mean Diff vs. placebo (95% CI) ([1]; Week 8, 400 mg BID): −0.41 | PGIC Mean (SD) ([1]; Week 8, 400 mg QPM): 2.21 | PGIC Median ([1]; Week 8, 400 mg QPM): 2.00 | PGIC category A little better, patients ([1]; Week 8, 400 mg QPM): 9 (27.3) | PGIC category A little worse, patients ([1]; Week 8, 400 mg QPM): 2 (6.1) | PGIC category Moderately better, patients ([1]; Week 8, 400 mg QPM): 6 (18.2) | PGIC category Moderately worse, patients ([1]; Week 8, 400 mg QPM): 1 (3.0) | PGIC category No change, patients ([1]; Week 8, 400 mg QPM): 10 (30.3) | PGIC category Very much better, patients ([1]; Week 8, 400 mg QPM): 4 (12.1) | PGIC category Very much worse, patients ([1]; Week 8, 400 mg QPM): 1 (3.0) | PGIC LS Mean (SE) ([1]; Week 8, 400 mg QPM): 2.10 | PGIC LS Mean Diff vs. placebo (95% CI) ([1]; Week 8, 400 mg QPM): 0.27 | PGIC Mean (SD) ([1]; Week 8, 400 mg TID): 0.90 | PGIC Median ([1]; Week 8, 400 mg TID): 1.00 | PGIC category A little better, patients ([1]; Week 8, 400 mg TID): 2 (6.7) | PGIC category A little worse, patients ([1]; Week 8, 400 mg TID): 1 (3.3) | PGIC category Moderately better, patients ([1]; Week 8, 400 mg TID): 10 (33.3) | PGIC category Moderately worse, patients ([1]; Week 8, 400 mg TID): 0 | PGIC category No change, patients ([1]; Week 8, 400 mg TID): 3 (10.0) | PGIC category Very much better, patients ([1]; Week 8, 400 mg TID): 14 (46.7) | PGIC category Very much worse, patients ([1]; Week 8, 400 mg TID): 0 | PGIC LS Mean (SE) ([1]; Week 8, 400 mg TID): 0.98 | PGIC LS Mean Diff vs. placebo (95% CI) ([1]; Week 8, 400 mg TID): −0.86 | PGIC Mean (SD) ([1]; Week 12, 400 mg BID): 1.03 | PGIC Median ([1]; Week 12, 400 mg BID): 0.50 | PGIC category A little better, patients ([1]; Week 12, 400 mg BID): 1 (3.3) | PGIC category A little worse, patients ([1]; Week 12, 400 mg BID): 1 (3.3) | PGIC category Moderately better, patients ([1]; Week 12, 400 mg BID): 8 (26.7) | PGIC category Moderately worse, patients ([1]; Week 12, 400 mg BID): 1 (3.3) | PGIC category No change, patients ([1]; Week 12, 400 mg BID): 4 (13.3) | PGIC category Very much better, patients ([1]; Week 12, 400 mg BID): 15 (50.0) | PGIC category Very much worse, patients ([1]; Week 12, 400 mg BID): 0 | PGIC LS Mean (SE) ([1]; Week 12, 400 mg BID): 1.17 | PGIC LS Mean Diff vs. placebo (95% CI) ([1]; Week 12, 400 mg BID): −0.46 | PGIC Mean (SD) ([1]; Week 12, 400 mg QPM): 2.12 | PGIC Median ([1]; Week 12, 400 mg QPM): 2.00 | PGIC category A little better, patients ([1]; Week 12, 400 mg QPM): 7 (20.6) | PGIC category A little worse, patients ([1]; Week 12, 400 mg QPM): 2 (5.9) | PGIC category Moderately better, patients ([1]; Week 12, 400 mg QPM): 6 (17.6) | PGIC category Moderately worse, patients ([1]; Week 12, 400 mg QPM): 1 (2.9) | PGIC category No change, patients ([1]; Week 12, 400 mg QPM): 11 (32.4) | PGIC category Very much better, patients ([1]; Week 12, 400 mg QPM): 6 (17.6) | PGIC category Very much worse, patients ([1]; Week 12, 400 mg QPM): 1 (2.9) | PGIC LS Mean (SE) ([1]; Week 12, 400 mg QPM): 2.00 | PGIC LS Mean Diff vs. placebo (95% CI) ([1]; Week 12, 400 mg QPM): 0.38 | PGIC Mean (SD) ([1]; Week 12, 400 mg TID): 0.97 | PGIC Median ([1]; Week 12, 400 mg TID): 0.00 | PGIC category A little better, patients ([1]; Week 12, 400 mg TID): 4 (12.9) | PGIC category A little worse, patients ([1]; Week 12, 400 mg TID): 2 (6.5) | PGIC category Moderately better, patients ([1]; Week 12, 400 mg TID): 5 (16.1) | PGIC category Moderately worse, patients ([1]; Week 12, 400 mg TID): 0 | PGIC category No change, patients ([1]; Week 12, 400 mg TID): 3 (9.7) | PGIC category Very much better, patients ([1]; Week 12, 400 mg TID): 17 (54.8) | PGIC category Very much worse, patients ([1]; Week 12, 400 mg TID): 0 | PGIC LS Mean (SE) ([1]; Week 12, 400 mg TID): 0.98 | PGIC LS Mean Diff vs. placebo (95% CI) ([1]; Week 12, 400 mg TID): −0.64 | Participants with any TEAE [2, 3]: 30 (73.2) n (%) | Participants with any TEAE leading to death [2, 3]: 0 n (%) | Participants with any TEAE leading to death ([2]; 400 mg QPM (N = 38), double-blind period, safety population): 0 n (%) | Participants with any TEAE leading to death ([2]; 400 mg TID (N = 41), double-blind period, safety population): 0 n (%) | patients with ALT increases>3×ULN (AESI) ([2]; BID cohort): 1 patient | patients with ALT increases>3×ULN (AESI) ([2]; QPM cohort): 2 patients | patients with ALT increases>3×ULN (AESI) ([2]; TID cohort): 1 patient | drug-induced liver injuries (including Hy's law) ([2]; double-blind period): no drug-induced liver injuries | severe/serious infections or opportunistic infections ([2]; double-blind period): no severe/serious infections or opportunistic infections | deaths ([2]; throughout the study): no deaths | treatment-emergent SAEs ([2]; throughout the study, same incidence across all rilzabrutinib dosing groups): 3

Reference: patent US20260256792A1, “TREATMENT OF CHRONIC SPONTANEOUS URTICARIA BY ADMINISTERING (R)-2-[3-[4-AMINO-3-(2-FLUORO-4-PHENOXY-PHENYL)PYRAZOLO[3,4-D]PYRIMIDIN-1-YL]PIPERIDINE-1-CARBONYL]-4-METHYL-4-[4-(OXETAN-3-YL)PIPERAZIN-1-YL]PENT-2-ENENITRILE” (priority 2023, published 2026)
